Assay results as given in ChEMBL document CHEMBL1201862, “PubChem BioAssay data set” (2004).
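Tested at 5 concentrations; 48 h exposure; 96-well plates; endpoints linearly interpolated, else capped at highest concentration. GI50 = concentration required for 50% inhibition of growth.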 The source made the active and inactive calls. No stated cut-off is given here; in the data, active = GI50 up to about 1.1 µM and inactive = higher.

Legend:
Assay in all cases: inhibition of tumour cell growth, NCI panel, 48 h
IGROV-1 = tested on: IGROV-1
Malme-3M = tested on: Malme-3M
UACC-62 = tested on: UACC-62
SF-539 = tested on: SF-539
COLO 205 = tested on: COLO 205
T47D = tested on: T47D
PC-3 = tested on: PC-3
KM12 = tested on: KM12
M14 = tested on: M14
ACHN = tested on: ACHN
HOP-92 = tested on: HOP-92
OVCAR-4 = tested on: OVCAR-4
A549 = tested on: A549
CCRF-CEM = tested on: CCRF-CEM
SK-OV-3 = tested on: SK-OV-3
OVCAR-5 = tested on: OVCAR-5
OVCAR-8 = tested on: OVCAR-8
MOLT-4 = tested on: MOLT-4
MDA-MB-231 = tested on: MDA-MB-231
NCI-H226 = tested on: NCI-H226
RXF 393 = tested on: RXF 393
SK-MEL-5 = tested on: SK-MEL-5
LOX IMVI = tested on: LOX IMVI
MDA-N = tested on: MDA-N
SNB-75 = tested on: SNB-75
UO-31 = tested on: UO-31
U-251 = tested on: U-251
SF-295 = tested on: SF-295
CAKI-1 = tested on: CAKI-1
NCI-H23 = tested on: NCI-H23
SR = tested on: SR
SF-268 = tested on: SF-268
Hs-578T = tested on: Hs-578T
K562 = tested on: K562
UACC-257 = tested on: UACC-257
TK-10 = tested on: TK-10
HOP-62 = tested on: HOP-62
DU-145 = tested on: DU-145
SK-MEL-28 = tested on: SK-MEL-28
MCF7 = tested on: MCF7
HCT-116 = tested on: HCT-116
NCI-H522 = tested on: NCI-H522
HT-29 = tested on: HT-29
SK-MEL-2 = tested on: SK-MEL-2
NCI/ADR-RES = tested on: NCI/ADR-RES
SNB-19 = tested on: SNB-19
NCI-H460 = tested on: NCI-H460
EKVX = tested on: EKVX
SN12C = tested on: SN12C
SW-620 = tested on: SW-620
BT-549 = tested on: BT-549
RPMI-8226 = tested on: RPMI-8226
HCC 2998 = tested on: HCC 2998
MDA-MB-435 = tested on: MDA-MB-435
OVCAR-3 = tested on: OVCAR-3
HL-60 = tested on: HL-60
HCT-15 = tested on: HCT-15
A498 = tested on: A498
786-0 = tested on: 786-0

With `O=C(/C=C/c1ccc2c(c1)OCO2)NCCc1ccco1` the GI50 (IGROV-1) was 19.5 µM (inactive), the GI50 (Malme-3M) was 41.6 µM (inactive) and the GI50 (UACC-62) was 44.2 µM (inactive). For the same compound, the GI50 (SF-539) was > 100 µM (inactive), the GI50 (COLO 205) was > 100 µM (inactive) and the GI50 (T47D) was 26.5 µM (inactive). For the same compound, the GI50 (PC-3) was 50.8 µM (inactive), the GI50 (KM12) was > 100 µM (inactive) and the GI50 (M14) was 45.5 µM (inactive). The GI50 (ACHN) was 53 µM (inactive), the GI50 (HOP-92) was 92.7 µM (inactive) and the GI50 (OVCAR-4) was > 100 µM (inactive). For the same compound, the GI50 (A549) was 89.5 µM (inactive), the GI50 (CCRF-CEM) was 59.8 µM (inactive) and the GI50 (SK-OV-3) was > 100 µM (inactive). For the same compound, the GI50 (OVCAR-5) was > 100 µM (inactive), the GI50 (OVCAR-8) was > 100 µM (inactive) and the GI50 (MOLT-4) was 48.9 µM (inactive). For the same compound, the GI50 (MDA-MB-231) was 44.8 µM (inactive), the GI50 (NCI-H226) was 90.2 µM (inactive) and the GI50 (RXF 393) was > 100 µM (inactive). The GI50 (SK-MEL-5) was 23.7 µM (inactive), the GI50 (LOX IMVI) was 78.5 µM (inactive) and the GI50 (MDA-N) was > 100 µM (inactive). For the same compound, the GI50 (SNB-75) was > 100 µM (inactive), the GI50 (UO-31) was 41 µM (inactive) and the GI50 (U-251) was > 100 µM (inactive). For the same compound, the GI50 (SF-295) was 54.8 µM (inactive), the GI50 (CAKI-1) was 52.5 µM (inactive) and the GI50 (NCI-H23) was > 100 µM (inactive). The GI50 (SR) was 18.5 µM (inactive), the GI50 (SF-268) was > 100 µM (inactive) and the GI50 (Hs-578T) was 65.3 µM (inactive). For the same compound, the GI50 (K562) was 39.7 µM (inactive), the GI50 (UACC-257) was 49.8 µM (inactive) and the GI50 (TK-10) was 65.8 µM (inactive). The GI50 (HOP-62) was 83.8 µM (inactive), the GI50 (DU-145) was > 100 µM (inactive) and the GI50 (SK-MEL-28) was > 100 µM (inactive). The GI50 (MCF7) was 49.4 µM (inactive), the GI50 (HCT-116) was 68.9 µM (inactive) and the GI50 (NCI-H522) was 37.9 µM (inactive). The GI50 (HT-29) was > 100 µM (inactive), the GI50 (SK-MEL-2) was > 100 µM (inactive) and the GI50 (NCI/ADR-RES) was 57.3 µM (inactive). The GI50 (SNB-19) was > 100 µM (inactive), the GI50 (NCI-H460) was 69.8 µM (inactive) and the GI50 (EKVX) was 73.3 µM (inactive). The GI50 (SN12C) was > 100 µM (inactive), the GI50 (SW-620) was > 100 µM (inactive) and the GI50 (BT-549) was > 100 µM (inactive). For the same compound, the GI50 (RPMI-8226) was 21.8 µM (inactive), the GI50 (HCC 2998) was > 100 µM (inactive) and the GI50 (MDA-MB-435) was 64.7 µM (inactive). For the same compound, the GI50 (OVCAR-3) was 34.4 µM (inactive).
For `CCCCSC1=N/C(=C\c2ccccc2O)C(Cl)=N1`, the GI50 (IGROV-1) was > 100 µM (inactive), the GI50 (Malme-3M) was > 100 µM (inactive) and the GI50 (UACC-62) was > 100 µM (inactive). The GI50 (SF-539) was > 100 µM (inactive), the GI50 (COLO 205) was > 100 µM (inactive) and the GI50 (T47D) was > 100 µM (inactive). The GI50 (PC-3) was > 100 µM (inactive), the GI50 (KM12) was > 100 µM (inactive) and the GI50 (M14) was > 100 µM (inactive). For the same compound, the GI50 (ACHN) was > 100 µM (inactive), the GI50 (HOP-92) was > 100 µM (inactive) and the GI50 (OVCAR-4) was > 100 µM (inactive). The GI50 (A549) was > 100 µM (inactive), the GI50 (SK-OV-3) was > 100 µM (inactive) and the GI50 (OVCAR-5) was > 100 µM (inactive). The GI50 (OVCAR-8) was > 100 µM (inactive), the GI50 (MOLT-4) was > 100 µM (inactive) and the GI50 (HL-60) was > 100 µM (inactive). For the same compound, the GI50 (MDA-MB-231) was > 100 µM (inactive), the GI50 (NCI-H226) was > 100 µM (inactive) and the GI50 (RXF 393) was > 100 µM (inactive). The GI50 (HCT-15) was over 100 µM, the GI50 (LOX IMVI) was > 100 µM (inactive) and the GI50 (MDA-N) was > 100 µM (inactive). For the same compound, the GI50 (A498) was > 100 µM (inactive), the GI50 (SNB-75) was > 100 µM (inactive) and the GI50 (UO-31) was > 100 µM (inactive). For the same compound, the GI50 (U-251) was > 100 µM (inactive), the GI50 (SF-295) was > 100 µM (inactive) and the GI50 (CAKI-1) was > 100 µM (inactive). The GI50 (NCI-H23) was > 100 µM (inactive), the GI50 (SF-268) was > 100 µM (inactive) and the GI50 (Hs-578T) was > 100 µM (inactive). For the same compound, the GI50 (786-0) was > 100 µM (inactive), the GI50 (UACC-257) was > 100 µM (inactive) and the GI50 (TK-10) was > 100 µM (inactive). For the same compound, the GI50 (HOP-62) was > 100 µM (inactive), the GI50 (DU-145) was > 100 µM (inactive) and the GI50 (SK-MEL-28) was > 100 µM (inactive). The GI50 (MCF7) was > 100 µM (inactive), the GI50 (HCT-116) was > 100 µM (inactive) and the GI50 (NCI-H522) was > 100 µM (inactive). The GI50 (HT-29) was > 100 µM (inactive), the GI50 (SK-MEL-2) was > 100 µM (inactive) and the GI50 (NCI/ADR-RES) was > 100 µM (inactive). The GI50 (SNB-19) was > 100 µM (inactive), the GI50 (NCI-H460) was > 100 µM (inactive) and the GI50 (EKVX) was > 100 µM (inactive). The GI50 (SN12C) was > 100 µM (inactive), the GI50 (SW-620) was > 100 µM (inactive) and the GI50 (BT-549) was > 100 µM (inactive). The GI50 (RPMI-8226) was > 100 µM (inactive), the GI50 (HCC 2998) was > 100 µM (inactive) and the GI50 (MDA-MB-435) was > 100 µM (inactive). For the same compound, the GI50 (OVCAR-3) was > 100 µM (inactive).
